Data on eleven compounds can be found in ChEMBL document CHEMBL1201862, “PubChem BioAssay data set” (2004).

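Protocol summary: plate cells (96-well), add compound at 5 concentrations, incubate 48 h, interpolate endpoints linearly. GI50 marks 50% less growth.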 Active and inactive are the calls of the source. Cut-off read from the data, not from the text of the source: active = GI50 up to about 1.1 µM and inactive = higher. Bounds are passed on as bounds.

Holding throughout (experiment): NCI tumour cell line growth inhibition, 48 h
Experiment [1] has as its system SW-620.
Experiment [2] has as its system Malme-3M.
The test system of experiment [3] is M14.
The test system of experiment [4] is U-251.
For experiment [5], the system named is SNB-75.
Experiment [6] relates to SN12C.
Experiment [7] deals with RPMI-8226.
For experiment [8], the system named is HOP-62.
For experiment [9], the system named is OVCAR-8.
For experiment [10], the system named is LOX IMVI.
In experiment [11] the test system is SK-MEL-2.
The subject of experiment [12] is A549.
Experiment [13] concerns NCI-H522.
Experiment [14] has as its system SF-295.
The test system of experiment [15] is OVCAR-3.
Experiment [16] concerns EKVX.
The subject of experiment [17] is NCI-H226.
For experiment [18], the system named is UACC-62.
The test system of experiment [19] is NCI-H460.
Experiment [20] relates to HCC 2998.

For the compound `Cc1ccc([N+](=O)[O-])cc1S(=O)(=O)Nc1ccc(C2=NN(c3ccc([N+](=O)[O-])cc3[N+](=O)[O-])C(c3ccccc3)C2)cc1` (stereo not drawn), the GI50 was 32.5 µM (inactive) in experiment [1]; 17.9 µM (inactive) in [2]; 17.4 µM (inactive) in experiment [3]; 12.7 µM (inactive) in experiment [4]; 22.5 µM (inactive) in experiment [5]; 17.2 µM (inactive) in experiment [6]. For the same compound, the GI50 in experiment [7] was 9.27 µM (inactive); in experiment [8], 15.5 µM (inactive); in [9] it was 17 µM (inactive); in experiment [10], 17.1 µM (inactive); in [11] it was 13.6 µM (inactive); in experiment [12], 19.1 µM (inactive). The GI50 in experiment [13] was 10.1 µM (inactive); in experiment [14] it was 14.3 µM (inactive); in experiment [15] it was 14.2 µM (inactive); in [16] it was 18.6 µM (inactive); in [17], 17.4 µM (inactive).
Consider `CC1(C)OCC[C@@H]1[Si](C)(C)C`, for which the GI50 in experiment [1] was > 100 µM (inactive); in [2], > 100 µM (inactive); in [3], > 100 µM (inactive); in [4] it was > 100 µM (inactive); in experiment [5], 52.1 µM (inactive); in experiment [6], > 100 µM (inactive). Besides, the GI50 in [7] is 29.6 µM (inactive); in [9] it was > 100 µM (inactive); in [10], 56.9 µM (inactive); in [18], 24.5 µM (inactive); in experiment [11], > 100 µM (inactive); in experiment [12], > 100 µM (inactive). Also, the GI50 in [19] is > 100 µM (inactive); in experiment [13] it was 15.3 µM (inactive); in [14], 90.8 µM (inactive); in experiment [15] it was 71.9 µM (inactive); in experiment [16], 26.2 µM (inactive); in experiment [17] it was 70.1 µM (inactive).
As for `O=C1OC(c2ccc(O)cc2)(c2ccc(O)cc2)c2ccc(Cl)c3cccc1c23.O=C1OC(c2ccc(O)cc2)(c2ccc(O)cc2)c2cccc3c(Cl)ccc1c23`, the GI50 is 14.9 µM (inactive) in experiment [1]; 9.55 µM (inactive) in [2]; 10 µM (inactive) in experiment [3]; 11.9 µM (inactive) in [4]; 8.47 µM (inactive) in experiment [6]; 12.5 µM (inactive) in [7]. In addition, the GI50 in experiment [8] was 3.94 µM (inactive); in [9], 14.4 µM (inactive); in [10], 10.9 µM (inactive); in experiment [18] it was 10.1 µM (inactive); in experiment [11], 12.6 µM (inactive); in [12], 18.8 µM (inactive). Further, the GI50 in experiment [19] is 12.4 µM (inactive); in [14], 12.2 µM (inactive); in experiment [15], 11.5 µM (inactive); in experiment [16], 0.075 µM (active); in experiment [17] it was 12.9 µM (inactive).
Regarding `N#Cc1c(Nc2ccc(F)cc2)[n+]([O-])c2ccc(Cl)cc2[n+]1[O-]`, the GI50 is 3.78 µM (inactive) in experiment [1]; 27.5 µM (inactive) in experiment [2]; 3.36 µM (inactive) in experiment [3]; 2.38 µM (inactive) in experiment [4]; 17.7 µM (inactive) in [5]; 2.55 µM (inactive) in experiment [6]. Besides, the GI50 in experiment [7] was 2.72 µM (inactive); in experiment [8] it was 4.52 µM (inactive); in experiment [9] it was 3.55 µM (inactive); in experiment [10] it was 0.975 µM (active); in [18], 3.66 µM (inactive); in [11], 3.67 µM (inactive). For the same compound, the GI50 in experiment [12] was 0.568 µM (active); in experiment [19] it was 2.38 µM (inactive); in experiment [14] it was 1.85 µM (inactive); in experiment [15], 2.62 µM (inactive); in experiment [17], 4.51 µM (inactive).
As to `Cc1ncc([N+](=O)[O-])n1CC[N+](C)([O-])CCCCn1ccnc1[N+](=O)[O-]` (stereo not drawn), the GI50 in [1], in experiment [2], in experiment [3], in experiment [4], in experiment [5] and in [6] was > 100 µM (inactive) each time. In addition, the GI50 in experiment [7], in experiment [8], in experiment [9], in experiment [10], in experiment [18] and in [11] was > 100 µM (inactive) each time. The GI50 in [12], in [19], in experiment [13], in experiment [14], in experiment [15] and in experiment [16] was > 100 µM (inactive) throughout. The GI50 in experiment [17] is > 100 µM (inactive).
Regarding `CCOC(=O)c1nc2ccc(C(F)(F)F)cc2nc1NCc1ccc(Cl)c(Cl)c1`, the GI50 is 40 µM (inactive) in [1]; 21.8 µM (inactive) in experiment [2]; 36.9 µM (inactive) in experiment [3]; 58.6 µM (inactive) in experiment [4]; 14 µM (inactive) in experiment [5]; > 100 µM (inactive) in experiment [7]. Also, the GI50 in experiment [8] was 21.1 µM (inactive); in [9], 37.1 µM (inactive); in experiment [10], 30.8 µM (inactive); in [18] it was 30 µM (inactive); in experiment [11] it was 63.8 µM (inactive); in experiment [12], 35.2 µM (inactive). Further, the GI50 is 45.6 µM (inactive) in experiment [19]; 11.4 µM (inactive) in experiment [13]; 29.8 µM (inactive) in experiment [14]; 23.3 µM (inactive) in experiment [15]; 22.8 µM (inactive) in [16]; 30.8 µM (inactive) in experiment [17].
Consider `CCN(CC)c1ccc2cc(C(=O)Nc3nc(C45CC6CC(CC(C6)C4)C5)cs3)c(=O)oc2c1`, for which the GI50 in experiment [1], in experiment [2], in experiment [4], in experiment [20], in [6] and in [7] was > 100 µM (inactive) each time. Also, the GI50 in [8], in [9], in experiment [10], in experiment [12], in [19] and in experiment [13] was > 100 µM (inactive) throughout. Moreover, the GI50 in experiment [14], in experiment [15], in experiment [16] and in experiment [17] was > 100 µM (inactive) each time.
As to `CC(=O)c1nccc2c1c(C)nc1ccccc12`, the GI50 was > 100 µM (inactive) in experiment [1]; > 100 µM (inactive) in [2]; > 100 µM (inactive) in [3]; > 100 µM (inactive) in experiment [4]; > 100 µM (inactive) in [5]; 32.7 µM (inactive) in experiment [6]. Besides, the GI50 in [7] was 16.4 µM (inactive); in [8], 69.8 µM (inactive); in experiment [9] it was 72.6 µM (inactive); in experiment [10], 57 µM (inactive); in [18] it was 53.7 µM (inactive); in [11], > 100 µM (inactive). Further, the GI50 is 65 µM (inactive) in experiment [12]; 32.8 µM (inactive) in experiment [19]; 47.5 µM (inactive) in [13]; 53.7 µM (inactive) in experiment [14]; > 100 µM (inactive) in [15]; 52.2 µM (inactive) in experiment [16]. For the same compound, the GI50 in experiment [17] was 10.4 µM (inactive).
Regarding `COC1CC(=O)C2C(=O)N(c3ccccc3)C(=O)C23C(C(=O)c2ccccc2)=C(C)NC13O` (stereo not drawn), the GI50 is 5.02 µM (inactive) in experiment [1]; 1.43 µM (inactive) in [2]; 15.5 µM (inactive) in [3]; 17.3 µM (inactive) in [4]; 16.6 µM (inactive) in [6]; 5.08 µM (inactive) in experiment [7]. Further, the GI50 in [8] is 20.2 µM (inactive); in [9] it was 21.1 µM (inactive); in experiment [10] it was 13.4 µM (inactive); in [18], 16.4 µM (inactive); in experiment [11], 17.1 µM (inactive); in [12], 34.4 µM (inactive). Also, the GI50 in [19] is 21.7 µM (inactive); in [13], 1.91 µM (inactive); in experiment [14] it was 32.4 µM (inactive); in experiment [15], 2.12 µM (inactive); in experiment [16] it was 17.4 µM (inactive).
Regarding `CC(=O)OCCCCn1cnc2c(Cl)nc(Nc3ccccc3)nc21`, the GI50 was > 100 µM (inactive) in [1]; > 100 µM (inactive) in experiment [2]; > 100 µM (inactive) in experiment [4]; 42.9 µM (inactive) in experiment [20]; > 100 µM (inactive) in [6]; > 100 µM (inactive) in [7]. Moreover, the GI50 in experiment [8], in experiment [9], in [10], in experiment [18], in [12] and in [19] was > 100 µM (inactive) each time. The GI50 was 16.5 µM (inactive) in experiment [13]; > 100 µM (inactive) in [14]; > 100 µM (inactive) in experiment [15]; > 100 µM (inactive) in [16]; > 100 µM (inactive) in experiment [17].
`O=C1/C(=C/c2ccccc2)CN(C(=O)C(Cl)(Cl)Cl)C/C1=C\c1ccccc1`: the GI50 in [1] is 0.546 µM (active); in experiment [2], 2.11 µM (inactive); in experiment [3], 1.26 µM (inactive); in experiment [4], 1.64 µM (inactive); in experiment [5], 3.27 µM (inactive); in [6] it was 1.72 µM (inactive). Also, the GI50 in experiment [7] was 0.0348 µM (active); in [8], > 10 µM (inactive); in experiment [9], 1.73 µM (inactive); in [10], 0.94 µM (active); in experiment [18], 1.68 µM (inactive); in [11] it was 2.91 µM (inactive). Besides, the GI50 was 13.9 µM (inactive) in [12]; 2.08 µM (inactive) in experiment [19]; 2.13 µM (inactive) in experiment [13]; 1.82 µM (inactive) in [14]; 2.86 µM (inactive) in [15]; 9.23 µM (inactive) in [16].
